Laboratory results: ChEMBL document CHEMBL1201862, “PubChem BioAssay data set” (2004)
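1) Cells in 96-well plates. 2) Compound, 48 h, 5 concentrations. 3) Linear interpolation between surrounding doses. 4) Unreached endpoint = highest concentration. The concentration for 50% growth inhibition is given as GI50.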 Active and inactive are the calls of the source. No stated cut-off is given here; in the data, active = GI50 up to about 1.1 µM and inactive = higher.

Assays:
Test in all cases: DTP human tumour cell line panel, 48 h
[1] = test system: 786-0
[2] = test system: A498
[3] = test system: A549
[4] = test system: ACHN
[5] = test system: CAKI-1
[6] = test system: CCRF-CEM
[7] = test system: COLO 205
[8] = test system: DLD-1
[9] = test system: DMS-114
[10] = test system: DMS-273
[11] = test system: EKVX
[12] = test system: HCC 2998
[13] = test system: HCT-116
[14] = test system: HCT-15
[15] = test system: HL-60
[16] = test system: HOP-18
[17] = test system: HOP-62
[18] = test system: HT-29
[19] = test system: IGROV-1
[20] = test system: K562
[21] = test system: KM-20L2
[22] = test system: KM12
[23] = test system: LOX IMVI
[24] = test system: LXFL 529
[25] = test system: M14
[26] = test system: M19-MEL
[27] = test system: MOLT-4
[28] = test system: Malme-3M
[29] = test system: NCI-H226
[30] = test system: NCI-H23
[31] = test system: NCI-H460
[32] = test system: NCI-H522
[33] = test system: OVCAR-3
[34] = test system: OVCAR-4
[35] = test system: OVCAR-5
[36] = test system: OVCAR-8
[37] = test system: RPMI-8226
[38] = test system: RXF 393
[39] = test system: SF-268
[40] = test system: SF-295
[41] = test system: SF-539
[42] = test system: SK-MEL-28
[43] = test system: SK-MEL-2
[44] = test system: SK-MEL-5
[45] = test system: SK-OV-3
[46] = test system: SN12C
[47] = test system: SNB-19
[48] = test system: SNB-75
[49] = test system: SNB-78
[50] = test system: SR
[51] = test system: SW-620
[52] = test system: TK-10
[53] = test system: U-251
[54] = test system: UACC-257
[55] = test system: UACC-62
[56] = test system: UO-31
[57] = test system: XF498
[58] = test system: DU-145
[59] = test system: HOP-92
[60] = test system: Hs-578T
[61] = test system: MCF7
[62] = test system: MDA-MB-231
[63] = test system: MDA-MB-435
[64] = test system: MDA-N
[65] = test system: NCI/ADR-RES
[66] = test system: PC-3
[67] = test system: T47D

With `O=C(CC1(O)C(=O)Nc2c(Cl)ccc(Cl)c21)c1ccc2ccccc2c1` (configuration not stated) the GI50 [1] was 6.25 µM (inactive), the GI50 [2] was 16.3 µM (inactive) and the GI50 [3] was 18.3 µM (inactive). The GI50 [4] was 12.9 µM (inactive), the GI50 [5] was 4.46 µM (inactive) and the GI50 [6] was 3.62 µM (inactive). For the same molecule, the GI50 [7] was 14.9 µM (inactive), the GI50 [8] was 17.9 µM (inactive) and the GI50 [9] was 5.78 µM (inactive). For the same molecule, the GI50 [10] was 5.58 µM (inactive), the GI50 [11] was 15.8 µM (inactive) and the GI50 [12] was 13.1 µM (inactive). For the same molecule, the GI50 [13] was 11.7 µM (inactive), the GI50 [14] was 6.19 µM and the GI50 [15] was 1.73 µM (inactive). For the same molecule, the GI50 [16] was 12.9 µM (inactive), the GI50 [17] was 29 µM (inactive) and the GI50 [18] was 2.43 µM (inactive). For the same molecule, the GI50 [19] was 14.3 µM (inactive), the GI50 [20] was 2.35 µM (inactive) and the GI50 [21] was 7.08 µM (inactive). The GI50 [22] was 4.69 µM (inactive), the GI50 [23] was 11.2 µM (inactive) and the GI50 [24] was 10.2 µM (inactive). For the same molecule, the GI50 [25] was 8.85 µM (inactive), the GI50 [26] was 2.65 µM (inactive) and the GI50 [27] was 10.8 µM (inactive). The GI50 [28] was 12.5 µM (inactive), the GI50 [29] was 19.2 µM (inactive) and the GI50 [30] was 10.4 µM (inactive). For the same molecule, the GI50 [31] was 9.2 µM (inactive), the GI50 [32] was 2.88 µM (inactive) and the GI50 [33] was 4.17 µM (inactive). The GI50 [34] was 2.29 µM (inactive), the GI50 [35] was 17.3 µM (inactive) and the GI50 [36] was 15.5 µM (inactive). The GI50 [37] was 6.75 µM (inactive), the GI50 [38] was 11.6 µM (inactive) and the GI50 [39] was 14.5 µM (inactive). The GI50 [40] was 4.92 µM (inactive), the GI50 [41] was 13.5 µM (inactive) and the GI50 [42] was 14.8 µM (inactive). For the same molecule, the GI50 [43] was 11.6 µM (inactive), the GI50 [44] was 5.65 µM (inactive) and the GI50 [45] was 11.9 µM (inactive). For the same molecule, the GI50 [46] was 16.4 µM (inactive), the GI50 [47] was 16.1 µM (inactive) and the GI50 [48] was 14.2 µM (inactive). The GI50 [49] was 14.5 µM (inactive), the GI50 [50] was 3.21 µM (inactive) and the GI50 [51] was 3.36 µM (inactive). For the same molecule, the GI50 [52] was 16.2 µM (inactive), the GI50 [53] was 4.76 µM (inactive) and the GI50 [54] was 12.2 µM (inactive). The GI50 [55] was 3.24 µM (inactive), the GI50 [56] was 18.1 µM (inactive) and the GI50 [57] was 12.6 µM (inactive).

In the case of `C=CCNc1nc2c(s1)C(=O)c1ccccc1C2=O`, the GI50 [1] is reported as 14.5 µM (inactive), the GI50 [2] is reported as 19.5 µM (inactive) and the GI50 [3] is reported as 6.43 µM (inactive). For the same molecule, the GI50 [4] was 7.62 µM (inactive), the GI50 [5] was 13.7 µM (inactive) and the GI50 [7] was 20.1 µM (inactive). The GI50 [9] was 1.77 µM (inactive), the GI50 [10] was 9.82 µM (inactive) and the GI50 [58] was 18.6 µM (inactive). For the same molecule, the GI50 [11] was 15.6 µM (inactive), the GI50 [12] was 20.7 µM (inactive) and the GI50 [13] was 3.81 µM (inactive). The GI50 [14] was 8.51 µM, the GI50 [15] was 1.61 µM (inactive) and the GI50 [16] was 11 µM (inactive). For the same molecule, the GI50 [17] was 13.4 µM (inactive), the GI50 [59] was 9.31 µM (inactive) and the GI50 [18] was 21.8 µM (inactive). For the same molecule, the GI50 [60] was 32.1 µM (inactive), the GI50 [19] was 8.73 µM (inactive) and the GI50 [20] was 4.76 µM (inactive). For the same molecule, the GI50 [21] was 19.1 µM (inactive), the GI50 [22] was 13.8 µM (inactive) and the GI50 [23] was 4.31 µM (inactive). For the same molecule, the GI50 [24] was 11.4 µM (inactive), the GI50 [25] was 5.12 µM (inactive) and the GI50 [26] was 1.76 µM (inactive). The GI50 [61] was 6.25 µM (inactive), the GI50 [62] was 10 µM (inactive) and the GI50 [63] was 1.91 µM (inactive). The GI50 [64] was 1.86 µM (inactive), the GI50 [27] was 2.26 µM (inactive) and the GI50 [28] was 12.5 µM (inactive). The GI50 [29] was 21.2 µM (inactive), the GI50 [30] was 4.4 µM (inactive) and the GI50 [31] was 12 µM (inactive). The GI50 [32] was 6.41 µM (inactive), the GI50 [65] was 15.4 µM (inactive) and the GI50 [33] was 12.1 µM (inactive). The GI50 [34] was 7.87 µM (inactive), the GI50 [35] was 21.7 µM (inactive) and the GI50 [36] was 3.73 µM (inactive). The GI50 [66] was 12.6 µM (inactive), the GI50 [37] was 3.12 µM (inactive) and the GI50 [38] was 18.6 µM (inactive). The GI50 [39] was 12.4 µM (inactive), the GI50 [40] was 14.8 µM (inactive) and the GI50 [41] was 8.11 µM (inactive). The GI50 [42] was 9.71 µM (inactive), the GI50 [43] was 10.9 µM (inactive) and the GI50 [44] was 1.7 µM (inactive). For the same molecule, the GI50 [45] was 17.9 µM (inactive), the GI50 [46] was 11.6 µM (inactive) and the GI50 [47] was 14.9 µM (inactive). The GI50 [48] was 18.7 µM (inactive), the GI50 [49] was 24.4 µM (inactive) and the GI50 [50] was 3.43 µM (inactive). The GI50 [51] was 12.9 µM (inactive), the GI50 [67] was 14.4 µM (inactive) and the GI50 [52] was 19.2 µM (inactive). For the same molecule, the GI50 [53] was 7.55 µM (inactive), the GI50 [54] was 2.7 µM (inactive) and the GI50 [55] was 3.9 µM (inactive). For the same molecule, the GI50 [56] was 13.3 µM (inactive) and the GI50 [57] was 20.4 µM (inactive).
